Read-outs that look alike come from different tables or passages of the source.

The text below walks through data of patent US12648574B2 (priority 2019, dated 2026).

The test system of experiment [1] is Erwinia amylovora EPS 101. It is filed as cell-based.
The subject of experiment [2] is Xanthomonas arboricola pv. pruni CFBP 5563. It counts as cell-based.
In experiment [3] the test system is Pseudomonas syringae pv. syringae EPS 94. It is filed as cell-based.
Experiment [4] deals with Xanthomonas fragariae 349-9^a. It is filed as cell-based.
The subject of experiment [5] is Xanthomonas axonopodis pv. vesicatoria IVIA 2133.2. It counts as cell-based.
Experiment [6] relates to Ralstonia solanacearum CECT 125. It is filed as cell-based. The conditions noted are these: streptomycin 100 mg/L.
Experiment [7] relates to Xylella fastidiosa subsp. fastidiosa IVIA 5387.2. It is filed as cell-based. The conditions noted are these: streptomycin 100 mg/L.
Experiment [8] concerns Xylella fastidiosa subsp. multiplex IVIA 5901.2. It counts as cell-based. To be noted: streptomycin 100 mg/L.
Experiment [9] concerns Xylella fastidiosa subsp. pauca DD1 CODiRo. It counts as cell-based. To be noted: streptomycin 100 mg/L.
Experiment [10] relates to Erwinia amylovora EPS 101. It counts as cell-based. This is another data set of the same source.
Experiment [11] deals with Xanthomonas arboricola pv. pruni CFBP 5563. It counts as cell-based. The source holds these as a separate data set.
In experiment [12] the test system is Xanthomonas axonopodis pv. vesicatoria IVIA 2133.2. It counts as cell-based. The conditions noted are these: 2 h.
The test system of experiment [13] is X. fastidiosa subsp. pauca strain CoDiRO (DD1). It is filed as cell-based, Xylella fastidiosa subsp. pauca. The conditions noted are these: streptomycin 100 mg/L.
Experiment [14] relates to Xylella fastidiosa subsp. multiplex IVIA 5901.2. It counts as cell-based. The conditions noted are these: for mean survival: ampicillin 100 mg/L.
Experiment [15] has as its system Xylella fastidiosa subsp. fastidiosa IVIA 5387.2. It counts as cell-based. The conditions noted are these: for mean survival: streptomycin 100 mg/L.
In experiment [16] the test system is EPS101 strain of E. amylovora in pear plants of the Conference variety. The arrangement: species or system Erwinia amylovora. To be noted: in vivo.
Experiment [17] concerns 11 phytopathogenic strains. It counts as cell-based.
In experiment [18] the test system is X. fastidiosa subsp. fastidiosa (IVIA strain 5387.2). It is filed as cell-based, Xylella fastidiosa subsp. fastidiosa. The conditions noted are these: ampicillin 100 mg/l.
In experiment [19] the test system is Xylella fastidiosa subsp. fastidiosa strain 5387.2 in almond plants of the Avijor variety. It counts as in vivo. The conditions noted are these: ampicillin 100 mg/L.
The mark [20] stands for this setting: 31 days after application, qPCR of sap.

Regarding `[H]/N=C(/N)N[C@H]1[C@H](O)[C@@H](O)[C@H](O[C@@H]2O[C@@H](C)[C@](O)(C=O)[C@H]2O[C@@H]2O[C@@H](CO)[C@H](O)[C@@H](O)[C@@H]2NC)[C@@H](N/C(N)=N\[H])[C@@H]1O` [streptomycin], the bacterial growth result in experiment [1], in experiment [2], in experiment [3], in experiment [4], in [5] and in experiment [6] was “−” each time. Further, the bacterial growth entry in experiment [7], in [8] and in experiment [9] was “−” throughout. Besides, the survival entry is listed as “significant reduction” in [10]; “no survival” in experiment [11] (2 hours); 3.06 in experiment [12]; 89.8% in [13] (30 minutes); 61.7% in [13] (120 minutes). In addition, the mean survival in experiment [11] is 0.01%; in experiment [15] (30 minutes), 4.4%; in experiment [15] (120 minutes), 20%. For the same compound, in experiment [14] (streptomycin 100 mg/L), the “survival compared to the untreated control” value is “no significant differences”. For the same compound, the “severity of infections with respect to untreated control” value in experiment [16] is listed as “significantly reduced”. Moreover, in experiment [17], the “growth of all pathogens tested” value is on record as “inhibited the growth”.
In [14] (30 minutes), `CC1(C)S[C@@H]2[C@H](NC(=O)[C@H](N)c3ccccc3)C(=O)N2[C@H]1C(=O)O` [ampicillin] gave a mean survival of 2%. In addition, the mean survival in experiment [14] (120 minutes) was 4.4%. The type of effect result in [15] (ampicillin 100 mg/L) is listed as “bacteriostatic effect”. In addition, the survival result in [15] (ampicillin 100 mg/L, 30 and 120 minutes, direct suspension or dilution −1) was “no survival”. In [18] (30 minutes), this compound came in with a median survival of 100%. The compound also showed a survival in experiment [18] (2 hours) of 20.6%. Besides, the “plants with decrease of viable bacteria at the inoculation point” value in experiment [19] (18 h after application, 4 plants) is on record as 25 % of the plants. Also, in [19] (31 days after application), the “plants with upward and downward movement of Xylella fastidiosa” value is listed as 75 % of the plants. Further, in experiment [19] (setting [20]), the “plants with Xylella fastidiosa not detected in A1” value is on record as 25 % of plants, the “plants with Xylella fastidiosa not detected in A2” value is 25 % of plants and the “plants with Xylella fastidiosa not detected in B” value is 25 % of plants. The “severity of infections with respect to untreated control” value in experiment [19] (curative trunk microinjection, product 20 and 40 μl/ml, 31 days after application) was “significantly reduced”. For the same compound, the “lower progression of Xylella fastidiosa by the vascular system (qPCR)” value in experiment [19] (product 20 μl/ml, 14 days after application) is reported as “not observed”.
